Assay results as given in PubChem BioAssay (NCI).
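How tested: cells in 96-well plates exposed to compound for 48 hours at five concentrations. GI50 marks 50% less growth. Definition used: TGI = concentration required for complete inhibition of growth.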

What was measured:
Experiment in all cases: growth of human tumour cells (NCI), 48 h
[1] = system: OVCAR-3 ovarian
[2] = system: UO-31 renal
[3] = system: MDA-MB-231 breast
[4] = system: SK-OV-3 ovarian
[5] = system: ACHN renal
[6] = system: NCI-H522 lung
[7] = system: HCT-15 colon
[8] = system: UACC-62 melanoma
[9] = system: M14 melanoma
[10] = system: SNB-75 CNS
[11] = system: LOX IMVI melanoma
[12] = system: HT29 colon
[13] = system: SN12C renal
[14] = system: SNB-19 CNS
[15] = system: SW-620 colon
[16] = system: OVCAR-8 ovarian
[17] = system: UACC-257 melanoma
[18] = system: T-47D breast
[19] = system: PC-3 prostate
[20] = system: NCI-H460 lung
[21] = system: EKVX NSCLC
[22] = system: OVCAR-4 ovarian
[23] = system: HOP-92 NSCLC
[24] = system: MCF7 breast
[25] = system: SF-268 CNS
[26] = system: MOLT-4 leukemia
[27] = system: HS 578T breast
[28] = system: SR leukemia
[29] = system: SF-295 CNS
[30] = system: BT-549 breast
[31] = system: IGROV1 ovarian
[32] = system: NCI/ADR-RES ovarian
[33] = system: NCI-H226 lung
[34] = system: COLO 205 colon
[35] = system: A549 NSCLC
[36] = system: MALME-3M melanoma
[37] = system: HOP-62 NSCLC
[38] = system: SK-MEL-5 melanoma
[39] = system: OVCAR-5 ovarian
[40] = system: KM12 colon
[41] = system: NCI-H23 lung
[42] = system: MDA-MB-435
[43] = system: RXF 393 renal
[44] = system: K-562 leukemia
[45] = system: U251 CNS
[46] = system: 786-0 renal
[47] = system: RPMI-8226 leukemia
[48] = system: SK-MEL-2 melanoma
[49] = system: DU-145 prostate
[50] = system: TK-10 renal
[51] = system: CAKI-1 renal
[52] = system: HL-60(TB) leukemia
[53] = system: SK-MEL-28 melanoma
[54] = system: HCT-116 colon

SMILES: CC(C)(C)[Si](C)(C)OCC1OC(n2cc(I)c(=O)[nH]c2=O)C(O[Si](C)(C)C(C)(C)C)C1O[Si](C)(C)C(C)(C)C (stereo unspecified)
- TGI [1]: 28 µM
- TGI [2]: 50.2 µM
- TGI [3]: 37.4 µM
- TGI [4]: 75.4 µM
- TGI [5]: 28.5 µM
- TGI [6]: 25.2 µM
- TGI [7]: > 100 µM
- TGI [8]: 35.4 µM
- TGI [9]: 45.4 µM
- TGI [10]: 33 µM
- TGI [11]: 35.2 µM
- TGI [12]: 37 µM
- TGI [13]: > 100 µM
- TGI [14]: 43.2 µM
- TGI [15]: 41.4 µM
- TGI [16]: 29.1 µM
- TGI [17]: 67.6 µM
- TGI [18]: 47.6 µM
- TGI [19]: 43.1 µM
- TGI [20]: 36.8 µM
- TGI [21]: 45.6 µM
- TGI [22]: > 100 µM
- TGI [23]: 56.2 µM
- TGI [24]: 29.4 µM
- TGI [25]: 43 µM
- TGI [26]: > 100 µM
- TGI [27]: 57.2 µM
- TGI [28]: > 100 µM
- TGI [29]: 36.8 µM
- TGI [30]: 50.7 µM
- TGI [31]: 38.1 µM
- TGI [32]: > 100 µM
- TGI [33]: 48 µM
- TGI [34]: 53.7 µM
- TGI [35]: 26.1 µM
- TGI [36]: > 100 µM
- TGI [37]: 39.8 µM
- TGI [38]: 31.4 µM
- TGI [39]: 45.7 µM

SMILES: COc1ccc2cc(C(=O)/C=C/c3ccc(N(C)C)cc3)ccc2c1
- GI50 [1]: > 100 µM
- TGI [1]: > 100 µM
- GI50 [2]: > 100 µM
- TGI [2]: > 100 µM
- GI50 [3]: 40.2 µM
- TGI [3]: > 100 µM
- GI50 [4]: > 100 µM
- TGI [4]: > 100 µM
- GI50 [5]: 81.4 µM
- TGI [5]: > 100 µM
- GI50 [6]: 39.1 µM
- TGI [6]: > 100 µM
- GI50 [7]: 57.3 µM
- TGI [7]: > 100 µM
- GI50 [40]: > 100 µM
- TGI [40]: > 100 µM
- GI50 [8]: > 100 µM
- TGI [8]: > 100 µM
- GI50 [9]: > 100 µM
- TGI [9]: > 100 µM
- GI50 [10]: > 100 µM
- TGI [10]: > 100 µM
- GI50 [11]: 48.1 µM
- TGI [11]: > 100 µM
- GI50 [41]: 41.6 µM
- TGI [41]: > 100 µM
- GI50 [12]: > 100 µM
- TGI [12]: > 100 µM
- GI50 [13]: > 100 µM
- TGI [13]: > 100 µM
- GI50 [42]: 93.1 µM
- TGI [42]: > 100 µM
- GI50 [14]: > 100 µM
- TGI [14]: > 100 µM
- GI50 [43]: 41.4 µM
- TGI [43]: > 100 µM
- GI50 [15]: 87.3 µM
- TGI [15]: > 100 µM
- GI50 [44]: > 100 µM
- TGI [44]: > 100 µM
- GI50 [16]: > 100 µM
- TGI [16]: > 100 µM
- GI50 [17]: 36.7 µM
- TGI [17]: > 100 µM
- GI50 [18]: > 100 µM
- TGI [18]: > 100 µM
- GI50 [19]: > 100 µM
- TGI [19]: > 100 µM
- GI50 [20]: 62.5 µM
- TGI [20]: > 100 µM
- GI50 [45]: 58.9 µM
- TGI [45]: > 100 µM
- GI50 [46]: > 100 µM
- TGI [46]: > 100 µM
- GI50 [21]: 21 µM
- TGI [21]: 72.1 µM
- GI50 [22]: 81.7 µM
- TGI [22]: > 100 µM
- GI50 [23]: > 100 µM
- TGI [23]: > 100 µM
- GI50 [24]: 83 µM
- TGI [24]: > 100 µM
- GI50 [25]: 42.6 µM
- TGI [25]: > 100 µM
- GI50 [47]: > 100 µM
- TGI [47]: > 100 µM
- GI50 [26]: > 100 µM
- TGI [26]: > 100 µM
- GI50 [28]: 79.1 µM
- TGI [28]: > 100 µM
- GI50 [29]: > 100 µM
- TGI [29]: > 100 µM
- GI50 [30]: 39.5 µM
- TGI [30]: > 100 µM
- GI50 [48]: 61.6 µM
- TGI [48]: > 100 µM
- GI50 [31]: 47.8 µM
- TGI [31]: > 100 µM
- GI50 [49]: > 100 µM
- TGI [49]: > 100 µM
- GI50 [32]: 49.8 µM
- TGI [32]: > 100 µM
- GI50 [34]: > 100 µM
- TGI [34]: > 100 µM
- GI50 [50]: 43.9 µM
- TGI [50]: > 100 µM
- GI50 [51]: 67.5 µM
- TGI [51]: > 100 µM
- GI50 [52]: > 100 µM
- TGI [52]: > 100 µM
- GI50 [35]: 60.3 µM
- TGI [35]: > 100 µM
- GI50 [36]: > 100 µM
- TGI [36]: > 100 µM
- GI50 [37]: > 100 µM
- TGI [37]: > 100 µM
- GI50 [53]: > 100 µM
- TGI [53]: > 100 µM
- GI50 [38]: 36.9 µM
- TGI [38]: 72.8 µM
- GI50 [54]: > 100 µM
- TGI [54]: > 100 µM
